Source: patent publication US20120034613A1, “Apparatus and Method for Testing Relationships Between Gene Expression and Physical Appearance of Skin” (NSE Products, Inc., priority 2010, published 2012)

Test system: EpidermFT™ Skin Model (EFT-400) full thickness skin cultures
Experiment: Affymetrix GeneChip HG U133 Plus 2.0 microarray global gene expression, agent-exposed vs untreated skin cultures
Assay type: cell-based, human
Conditions: Salicin 0.5% vs Untreated Control, 24 hr treatment

OCc1ccccc1O[C@@H]1O[C@H](CO)[C@@H](O)[C@H](O)[C@H]1O [Salicin, 2-(Hydroxymethyl)phenyl β-D-glucospyranoside]
up: Direction ABHD2 (221815_at) | Direction ABHD2 (225337_at) | Direction ADAMTS5 (235368_at) | Direction ADAMTS6 (1570351_at) | Direction ADCYAP1 (230237_at) | Direction AHI1 (220841_s_at) | Direction AHI1 (221569_at) | Direction AKR1C1 (1562102_at) | Direction AKT3 (212607_at) | Direction AKT3 (212609_s_at) | Direction AKT3 (222880_at) | Direction AKT3 (224229_s_at) | Direction ALG9 (228817_at) | Direction ANKRD28 (213035_at) | Direction ANKRD28 (229307_at) | Direction ARMC8 (1555281_x_at) | Direction ARNT2 (202986_at) | Direction ATF3 (1554980_a_at) | Direction ATP2A3 (207522_s_at) | Direction BAG2 (209406_at) | Direction BCL2L11 (1558143_a_at) | Direction BNC2 (220272_at) | Direction BNC2 (235723_at) | Direction C1GALT1C1 (238989_at) | Direction C1orf67 /// DNAH14 (242283_at) | Direction C13orf33 (227058_at) | Direction CABLES1 (225532_at) | Direction CARD16 (1552701_a_at) | Direction CCR1 (205098_at) | Direction CDCP1 (1554110_at) | Direction CDR2 (209501_at) | Direction CHST2 (203921_at) | Direction CLGN (205830_at) | Direction CNOT3 (203239_s_at) | Direction CPM (241765_at) | Direction CPM (243403_x_at) | Direction CREM (207630_s_at) | Direction CUL4B (202213_s_at) | Direction CXCL1 (204470_at) | Direction CYP7B1 (207386_at) | Direction CYR61 (210764_s_at) | Direction DENND3 (212975_at) | Direction DENND5B (228551_at) | Direction DGKI (206806_at) | Direction DNAJB9 (202842_s_at) | Direction DNAJB9 (1554462_a_at) | Direction DNAJC10 (221781_s_at) | Direction DNAJC10 (221782_at) | Direction DOCK4 (205003_at) | Direction DOCK5 (230206_at) | Direction DOCK5 (230263_s_at) | Direction DOK6 (236290_at) | Direction DSEL (232825_s_at) | Direction DUSP4 (204015_s_at) | Direction DZIP1 (204557_s_at) | Direction EIF2AK3 (218696_at) | Direction ELL2 (214446_at) | Direction ELTD1 (219134_at) | Direction ENPP1 (205066_s_at) | Direction ENTPD7 (220153_at) | Direction EPS8 (202609_at) | Direction EREG (205767_at) | Direction ERO1LB (220012_at) | Direction FADS1 (208963_x_at) | Direction FADS1 (208964_s_at) | Direction FAM20A (226804_at) | Direction FAM107B (223058_at) | Direction FAM107B (223059_s_at) | Direction FAR2 (220615_s_at) | Direction FAT4 (219427_at) | Direction FEM1B (212374_at) | Direction FGF7 (1555103_s_at) | Direction FGF7 /// KGFLP1 /// KGFLP2 (1554741_s_at) | Direction FHOD3 (218980_at) | Direction FKBP11 (219117_s_at) | Direction FKBP11 (219118_at) | Direction FMN2 (1555471_a_at) | Direction FN1 (214701_s_at) | Direction FN1 (214702_at) | Direction FOXJ3 (217310_s_at) | Direction FPR1 (205119_s_at) | Direction GAS1 (204457_s_at) | Direction GCLM (203925_at) | Direction GCLM (236140_at) | Direction GEM (204472_at) | Direction GFPT1 (226886_at) | Direction GFPT2 (205100_at) | Direction GLIPR1 (204222_s_at) | Direction GRAMD1A (224807_at) | Direction GRAMD1B (212906_at) | Direction GUCY1A3 (221942_s_at) | Direction GUCY1A3 (229530_at) | Direction HERC3 (1554290_at) | Direction HEY1 (44783_s_at) | Direction HIST1H2AB /// HIST1H2AE (214469_at) | Direction HIST1H2AD /// HIST1H3A /// HIST1H3B /// HIST1H3C /// HIST1H3D /// HIST1H3E /// HIST1H3F /// HIST1H3G /// HIST1H3H /// HIST1H3I /// HIST1H3J (214472_at) | Direction HIST2H2AA3 /// HIST2H2AA4 (214290_s_at) | Direction HK2 (222305_at) | Direction HOXB2 (205453_at) | Direction HSD17B2 (204818_at) | Direction HSPA13 (202557_at) | Direction ID2 /// ID2B (213931_at) | Direction IGFBP5 (211958_at) | Direction ING1 (209808_x_at) | Direction IRAK2 (231779_at) | Direction IRAK3 (220034_at) | Direction ITPRIP (225582_at) | Direction JHDM1D (225142_at) | Direction KCNA3 (207237_at) | Direction KCNE4 (222379_at) | Direction KCNE4 (1552508_at) | Direction KCNJ8 (205303_at) | Direction KCNJ8 (205304_s_at) | Direction KLF15 (231015_at) | Direction KLHL29 (229310_at) | Direction LCP1 (208885_at) | Direction LOC285628 (232504_at) | Direction LOC440028 (1562606_a_at) | Direction LOC729222 /// PPFIBP1 (214375_at) | Direction LOC100128821 /// ZEB2 (235593_at) | Direction LOC100132244 (229438_at) | Direction LPAR1 (204036_at) | Direction LPAR1 (204037_at) | Direction LPAR1 (204038_s_at) | Direction LPPR4 (213496_at) | Direction LRCH2 (227688_at) | Direction LRRK2 (229584_at) | Direction MAGEA4 (214254_at) | Direction MAP3K4 (216199_s_at) | Direction MAP3K5 (203836_s_at) | Direction MAP9 (220145_at) | Direction MASP1 (232224_at) | Direction MASP1 (235770_at) | Direction MESDC1 (223264_at) | Direction MGST1 (239001_at) | Direction MMD (203414_at) | Direction MTHFD2L (220346_at) | Direction MYO3B (1552578_a_at) | Direction NAMPT (217738_at) | Direction NEGR1 (1553194_at) | Direction NEXN (226103_at) | Direction NFKB2 (207535_s_at) | Direction NFKBIZ (223217_s_at) | Direction NOVA1 (205794_s_at) | Direction NR4A1 (202340_x_at) | Direction NRP2 (228699_at) | Direction OLAH (222945_x_at) | Direction PAPPA (201981_at) | Direction PAPPA (224940_s_at) | Direction PAPPA (224941_at) | Direction PAPPA (228128_x_at) | Direction PAPPA (1559400_s_at) | Direction PCDH7 (210941_at) | Direction PCSK1 (205825_at) | Direction PDE4D (211840_s_at) | Direction PEG10 (212092_at) | Direction PF4 (206390_x_at) | Direction PGM2L1 (229256_at) | Direction PHLDA1 (217996_at) | Direction PHTF1 (215285_s_at) | Direction PI15 (229947_at) | Direction PID1 (219093_at) | Direction PID1 (237867_s_at) | Direction PISD (202392_s_at) | Direction PITPNC1 (238649_at) | Direction PLAUR (211924_s_at) | Direction PLEKHA3 (223370_at) | Direction PTGER4 (204897_at) | Direction PTGES (207388_s_at) | Direction PTGES (210367_s_at) | Direction PTGS1 (205128_x_at) | Direction PTGS1 (215813_s_at) | Direction PTHLH (206300_s_at) | Direction PTHLH (211756_at) | Direction PTPRG (204944_at) | Direction QKI (228540_at) | Direction RAB3B (205924_at) | Direction RAB3B (227123_at) | Direction RAB23 (220955_x_at) | Direction RABGGTB (209180_at) | Direction RABGGTB (213704_at) | Direction RAI14 (202052_s_at) | Direction RASSF8 (235996_at) | Direction RGS3 (203823_at) | Direction RGS5 (209070_s_at) | Direction RGS12 (242079_at) | Direction RHOQ (212122_at) | Direction SEC24A (212902_at) | Direction SEMA3A (206805_at) | Direction SETDB2 (235339_at) | Direction SGK1 (201739_at) | Direction SH3RF3 (228461_at) | Direction SHOX (207570_at) | Direction SLC6A15 (232263_at) | Direction SLC11A2 (237106_at) | Direction SLC20A1 (230494_at) | Direction SLC43A3 (210692_s_at) | Direction SLFN11 (226743_at) | Direction SLIT2 (209897_s_at) | Direction SNHG12 (223774_at) | Direction SOCS2 (203373_at) | Direction SPON1 (209437_s_at) | Direction SPON1 (213993_at) | Direction SQSTM1 (213112_s_at) | Direction ST3GAL1 (208322_s_at) | Direction ST3GAL1 (225033_at) | Direction STK17B (205214_at) | Direction SULF1 (212344_at) | Direction TAF1A (206613_s_at) | Direction TAGLN (205547_s_at) | Direction TBC1D1 (212350_at) | Direction TBC1D1 (227945_at) | Direction TGM2 (201042_at) | Direction THBS1 (201108_s_at) | Direction THBS1 (239336_at) | Direction THRAP3 (242163_at) | Direction TMEM38B (222735_at) | Direction TMEM38B (222736_s_at) | Direction TMEM39A (218615_s_at) | Direction TMEM39A (222690_s_at) | Direction TMTC1 (226322_at) | Direction TMTC1 (226931_at) | Direction TNC (216005_at) | Direction TNFAIP6 (206026_s_at) | Direction TNIP3 (220655_at) | Direction TRPA1 (217590_s_at) | Direction TRPC4 (224220_x_at) | Direction UBE2B (239163_at)
